Source: patent US9951055B2, “Thiazole-based inhibitors of scavenger receptor BI” (THE BROAD INSTITUTE, INC., priority 2012, dated 2018)
Entries after “also recorded” stand apart in the source; their conditions may differ. Where a name gives a salt, the structure may show the parent alone. Read-outs that look alike come from different tables or passages of the source.

What was measured:
murine SR-BI = target: T1, murine SR-BI (Mus musculus, UniProt Q61009); test: DiI-HDL uptake assay (primary assay); type: cell-based
T1 construct: expressed in transfected cells; host or cells: ldlA[mSR-BI]; (CHO ldlA7 derivative lacking the LDL receptor)
T1 sequence (Q61009 1-509): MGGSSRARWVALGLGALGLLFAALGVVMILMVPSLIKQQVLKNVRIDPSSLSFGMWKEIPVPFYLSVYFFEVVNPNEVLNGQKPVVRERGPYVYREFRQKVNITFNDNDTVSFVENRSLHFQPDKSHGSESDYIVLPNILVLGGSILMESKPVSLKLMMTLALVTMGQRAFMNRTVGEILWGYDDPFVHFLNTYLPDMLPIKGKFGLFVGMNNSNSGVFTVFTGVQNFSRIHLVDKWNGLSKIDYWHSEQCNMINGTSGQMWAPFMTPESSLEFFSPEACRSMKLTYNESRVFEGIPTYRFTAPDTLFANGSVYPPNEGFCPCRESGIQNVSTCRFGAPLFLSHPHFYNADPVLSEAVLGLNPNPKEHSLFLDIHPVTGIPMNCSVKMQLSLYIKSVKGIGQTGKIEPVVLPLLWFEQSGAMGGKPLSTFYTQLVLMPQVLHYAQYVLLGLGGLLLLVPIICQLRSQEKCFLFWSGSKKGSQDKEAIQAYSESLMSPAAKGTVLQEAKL
From the text: The following cell lines were used in this study: • ldlA[mSR-BI] is a Chinese hamster ovary (CHO) cell line that overexpresses murine SR-BI, isoform 1 (NP_058021) and was obtained from the Assay Provider (Krieger Laboratory). This cell line was used for the primary assay and several secondary assays. […] This cell line was obtained from the Assay Provider. Assays DiI-HDL Uptake Assay (Primary Assay AID Nos. 488896, 493194, 540354 588392, 588553, 588548, 588754, 588828, 588833)
ldlA[mSR-BI]cells were plated into 384-well plates at 30 μl per well and incubated overnight. As a measurable surrogate for cholesterol uptake, human HDL particles were treated with the lipophilic fluorescent dye DiI and exposed to ldlA[mSR-BI]cells in lipoprotein-free media (Ham's F12/0.5% fatty acid-free Bovine Serum Albumin (BSA)/25 mM HEPES pH 7.4 plus 10 μg protein/ml DiI-HDL). Cells took up the DiI via SR-BI over 3 hours in the presence of compound. After significant uptake of the DiI, the cells became fluorescent. The level of fluorescence correlates with the amount of DiI uptake and can be measured with a standard plate reader (here a PerkinElmer EnVision plate reader was used). The uptake of lipid (represented by DiI) was inhibited by the positive control compound BLT-1 or with an excess of HDL untreated with DiI. Primary HTS data were analyzed in Genedata Screener Assay Analyzer, and were normalized against DMSO and the positive control (1 μM BLT-1). For the HTS, the average of two replicates was used to rank order activity and to choose compounds for retests. For dose studies, percent (%) activity was determined for each concentration and the concentration response curves (CRCs) were generated with Genedata Condeseo.
To identify novel inhibitors, SR-BI-mediated lipid uptake was measured in an engineered cell line that minimized potential uptake by other mechanisms, including via the LDL receptor (1). ldlA[mSR-BI]cells overexpress murine isoform 1 and selectively take up HDL lipid at similar levels as “has been reported for cultured mouse adrenal cells, perfused organs, and liver, adrenal gland and ovary in vivo” (1). This primary cell-based assay was used in a pilot screen that identified BLTs 1 through 5 (12). The assay was slightly modified from the original protocol of Nieland et al. to increase throughput and to ease automation procedures.

[1] = system: Jc1 378-1 TagRFP reporter HCV virus; test: In vitro inhibition of HCV in Huh-7.5 cells; type: cell-based, hepatitis C virus; details: for inhibition of HCV replication: Huh-7.5 cells, MOI=0.1, 3 dpi; for mean fluorescence intensity (MFI) of HCV positive cells: normalized to DMSO control
Method: The compound of formula (II) was also tested for the in vitro inhibition of HCV. Huh-7.5 cells were seeded in a 24-well plates (50,000 cells/well) and incubate over night. The medium was changed to compound/solvent containing medium 2 hours prior to infection (200 μL/well) with a reporter HCV virus called Jc1 378-1 TagRFP. A dilute virus stock was used to infect at a MOI of 0.1 (7,500 IU/well) in 10 μL medium. 10 μL of virus dilution was added to the wells containing compound/solvent (thereby dilution the compounds by only ˜5%). Infections were incubated for 4 hours before washing off the inoculum 1× with 500 μL medium. Fresh compound/solvent containing medium was added to the cells (500 μL/well), and further incubated for 48-72 hours. Cells were harvested at 48-72 hpi and viral replication was determined by fixing the cells and measuring replication by FACS (fluorescence activated cell sorting). Controls having antibodies that neutralize HCV by blocking E2 (2 μg/mL) and controls having antibodies that block a HCV receptor CD81 (2 μg/mL) were used.
A series of tests were conducted using the compound of Formula II ML278), other known inhibitors of SRB1 and controls with cells infected with hepatitis C virus (HCV). The cells (Huh-7.5 cells infected with Jc1 378-1 TagRFP (MOI=0.1) 3 dpi) were treated with the following SR-BI compounds and controls:
Three different infection protocols were followed: (1) no wash—virus inoculum was removed 4 hpi and fresh medium containing compounds added without washing cells; (2) 5× wash—virus inoculum was removed 4 hpi, cells were washed 5× with PBS and fresh medium containing compounds added; and (3) no wash Opt—infection were performed in serum-free OptiMem; virus inoculum was removed 4 hpi and fresh medium containing compounds added without washing cells. FIG. 107 provides a comparison of the three different infection set-ups. FIG. 108 provides a comparison of two independent experiments.

[2] = system: endocytosis of transferrin; test: Transferrin endocytosis assay; type: cell-based
From the text: Transferrin Endocytosis Assay (SA 3: AID No. 602134) This assay measures the endocytosis of an independent ligand, transferrin, which is not taken up via SR-BI but by clathrin-mediated endocytosis. This assay provides a measure of the selectivity of the inhibitors. Alexa-594-labeled transferrin is taken into the cell via endocytosis and localization of labeled transferrin was quantitated in the various intracellular compartments. […] Inhibitors of interest should act selectively at SR-BI and should have no activity in this assay. Cells were pre-treated with compound for 3 hours and then treated with the Alexa-594 transferrin reagent for 30 minutes (Catalog No. T-13343; Invitrogen) in serum-free media. Plates of cells were then placed onto ice, washed with ice cold PBS, and then fixed with 4% paraformaldehyde. In addition, the nuclei were stained with 300 nM 4′,6-diamidino-2-phenylindole (DAPI) (Catalog No. 21490; Invitrogen). The cells were imaged with the Molecular Devices IXM microscope (FIG. 22). Translocation measurements were performed using MetaExpress software and normalized for cell number.

Structure (SMILES): COc1cc(OC)cc(C(=O)Nc2nc(-c3ccc4c(c3)CCN4C(=O)OC(C)(C)C)cs2)c1 [Boc carbamate, tert-Butyl 5-(2-(3,5-dimethoxybenzamido)thiazol-4-yl)indoline-1-carboxylate]
- IC50 (murine SR-BI; read-out: IC50, DiI-HDL uptake): 0.9 nM

Structure (SMILES): CC(=O)Nc1ccc(Cl)c(C(=O)Nc2ccc(N3CCN(C(=O)OC(C)(C)C)CC3)cc2)c1 [Compound R-154716]
- inhibition of HCV replication ([1]; listed as SRB1-2): inhibited viral replication; also recorded: able to inhibit HCV replication
- mean fluorescence intensity (MFI) of HCV positive cells [1]: increased mean fluorescence intensity (MFI) of HCV positive cells in a dose dependent manner

Structure (SMILES): COc1c(NC(=O)C(=O)c2ccc(OCCN3CCOCC3)c3ccccc23)cc(C(C)(C)C)cc1NS(C)(=O)=O [ITX-5061]
- inhibition of HCV replication ([1]; listed as SRB1-9): inhibited viral replication; also recorded: able to inhibit HCV replication
- mean fluorescence intensity (MFI) of HCV positive cells [1]: this increase was not seen

Structure (SMILES): CCC(=O)N1CCc2cc(-c3csc(NC(=O)c4ccco4)n3)ccc21 [MLS001217863]
- IC50 (murine SR-BI; range, read-out: range of IC50 for HDL-mediated lipid uptake): 0.93 to 6 nM
- endocytosis of transferrin [2]: not grossly perturbing cellular membrane trafficking pathways

Structure (SMILES): COc1cc(OC)cc(C(=O)Nc2nc(-c3ccc4c(c3)CCN4)cs2)c1 [N-(4-(Indolin-5-yl)thiazol-2-yl)-3,5-dimethoxybenzamide, trifluoroacetic acid salt]
- loss of activity/potency relative to parent analog (murine SR-BI): approximately 3 fold
